Data: patent US20250281462A1, “THERAPEUTICALLY EFFECTIVE ORAL ADMINISTRATION OF A 2 ARYLBENZIMIDAZOLE” (Tranquis Therapeutics, Inc., priority 2021, published 2025)
Values joined by “and” are separate entries in the source; they are usually repeats but may differ in a detail not shown here. Equal values may be shown once. “Also recorded” adds a separate entry of the source.

Tests used:
clinical = settings: male, human, in vivo, po; for half-life: T1/2
[1] = Plasma and brain concentrations after single oral dose 45 mg/kg in mice; assay type: in vivo; settings: TQS-168 45 mg/kg p.o.
Description: Mice were administered a single oral dose of 45 mg/kg TQS-168. TQS-168 was prepared at a concentration of 5.0 mg/mL as a solution in 10% polyethylene glycol (PEG) 400|130% Kleptose (Roquette) 60% water.
Concentrations in plasma and in brain were measured at various timepoints and various pharmacokinetic parameters were calculated, as shown below in Tables 4 and 5 and in FIGS. 19A and 19B.
TQS-168 was prepared as a 4.5 mg/ml solution in PEG400 10%| Kleptose 30% sterile water 60%. A single oral dose of 45 mg/kg was administered. Concentrations of TQS-621 were measured in plasma and brain over time.

[2] = Plasma concentrations of TQS-168 and TQS-621 after single oral dose 50 mg/kg in mice, three formulations; assay type: in vivo; settings: mice plasma, TQS-168 50 mg/kg p.o.
Description: In a second experiment, mice were administered 50 mg/kg TQS-168 by oral gavage. For Group 1, TQS-168 was prepared at a concentration of 5.0 mg/mL in a suspension with […] in PBS. For Group 2, TQS-168 was prepared at a concentration of 5.0 mg/mL as a solution in 10 polyethylene glycol (PEG) 400|30 Kleptose (Roquete)|60% water.
Plasma exposures for Group 1 mice (ng/mL) are presented in Table 2 and for Group 2 mice in Table 3.
C57BL/6 male mice were administered a single dose of TQS-168 at 50 mg/kg using one of three formulations: Group 1-5.0 mg/ml suspension in 0.5% methylcellulose in PBS; Group 2-5.0 mg/ml solution in PEG400 (Fluka) 10%|Kleptose (Roquette) 30%|sterile water 60%; Group 3-5.0 mg/ml suspension in Labrafil M 1944 CS (Gattefosse) 30%|Masine CC (Gattefosse) 5%|Miglyol 812N 10%|sterile water 55%.
Plasma concentrations of TQS-168 and TQS-621 were measured overtime.

TNFα = test: LPS-stimulated TNFα secretion from human PBMCs (ELISA); assay type: cell-based; settings: LPS 1 ng/mL, 24 h
Description: The principal metabolites from liver metabolism of TQS-168 following oral administration have been described. See Sun et al., Rapid Commun. Mass Spectrom. 32:480-488 (2018), incorporated herein by reference. We synthesized the phase 1 metabolites from liver metabolism of TQS-168 illustrated in FIG. 20 and tested them for the ability to inhibit LPS-stimulated secretion of pro-inflammatory cytokines in vitro.
Briefly, 20,000 human PBMC were aliquoted into each well. LPS was added at 1 ng/mL and the cells incubated for 24 h in the presence of LPS and TQS-168 or one of its metabolites. Readouts were human IL-6 ELISA and human TNFα ELISA. For assay, supernatants were diluted in culture medium. The supernatant dilution for the IL-6 ELISA was 1:8, and the 1:2 for the human TNFα ELISA.

[3] = mouse, po, mice brain, solution PEG 400/Kleptose/water
[4] = mouse, po, mice plasma, solution PEG 400/Kleptose/water
[5] = male, C57BL/6, mouse, plasma, po, 50 mg/kg, Group 1 (suspension, 0.5% methylcellulose in PBS), mean
[6] = male, C57BL/6, mouse, plasma, po, 50 mg/kg, Group 2 (solution, PEG400/Kleptose/water), individual mouse
[7] = male, C57BL/6, mouse, plasma, po, 50 mg/kg, Group 2 (solution, PEG400/Kleptose/water), mean
[8] = male, C57BL/6, mouse, plasma, po, 50 mg/kg, Group 3 (suspension, Labrafil/Masine/Miglyol/water), individual mouse
[9] = male, C57BL/6, mouse, plasma, po, 50 mg/kg, Group 3 (suspension, Labrafil/Masine/Miglyol/water), mean
[10] = Group 1 (suspension, 0.5% methylcellulose in PBS), individual mouse
[11] = Group 2 (solution, PEG400/Kleptose/water), individual mouse
[12] = Group 2 (solution, PEG400/Kleptose/water), mean
[13] = Group 3 (suspension, Labrafil/Masine/Miglyol/water), individual mouse

AUC(0-t) (clinical; 60 mg, AUC(0-24)): 383 ng·h/mL
AUC(0-inf) (clinical; 60 mg): 410 ng·h/mL
AUC(0-t) (clinical; 60 mg, AUC(0-last)): 401 ng·h/mL
Cmax (clinical; 60 mg): 65.3 ng/mL and 250 nM
half-life (clinical; 60 mg): 4.89 h
Tmax (clinical; 60 mg): 2.5 h
AUC(0-t) (clinical; 90 mg, AUC(0-24)): 1170 ng·h/mL
AUC(0-inf) (clinical; 90 mg): 1200 ng·h/mL
Cmax (clinical; 90 mg): 214 ng/mL and 800 nM
half-life (clinical; 180 mg): 9.1 h
Tmax (clinical; 180 mg): 1.5 h
AUC(0-t) (clinical; 270 mg, AUC(0-24)): 4250 ng·h/mL
AUC(0-inf) (clinical; 270 mg): 4950 ng·h/mL
AUC(0-t) (clinical; 270 mg, AUC(0-last)): 4760 ng·h/mL
Cmax (clinical; 270 mg): 2330 nM
half-life (clinical; 270 mg): 10.4 h
Tmax (clinical; 270 mg): 2 h
AUC(0-t) (clinical; 540 mg, AUC(0-24)): 10800 ng·h/mL
AUC(0-inf) (clinical; 540 mg): 12700 ng·h/mL
AUC(0-t) (clinical; 540 mg, AUC(0-last)): 12000 ng·h/mL
Cmax (clinical; 540 mg): 1110 ng/mL and 4.17 µM
half-life (clinical; 540 mg): 11.3 h
Tmax (clinical; 540 mg): 4 h
AUClast Ratio (Metabolites/Parent) ([1]; mice brain, solution): 0.172
Cmax Ratio (Metabolite/Parent) ([1]; mice brain, solution): 0.159
AUCInf ([1]; mice brain, solution PEG 400/Kleptose/water): 4282 ng·h/g
AUClast ([1]; mice brain, solution PEG 400/Kleptose/water, last time point 24 hr): 4234 ng·h/g
Cmax [1, 3]: 678 ng/g
Tmax [1, 3]: 4 h
half-life [1, 3]: 4.85 h
AUC(0-inf) [1, 4]: 4310 ng·h/mL
Cmax [1, 4]: 692 ng/mL
Tmax [1, 4]: 4 h
AUC(0-t) ([1]; mouse, po, mice plasma, solution PEG 400/Kleptose/water, last time point 24 hr): 4280 ng·h/mL
Cmax ([2]; male, C57BL/6, mouse, plasma, po, 50 mg/kg, Group 1 (suspension, 0.5% methylcellulose in PBS), individual mouse, read-out: Cmax): 239 ng/mL
Tmax ([2]; male, C57BL/6, mouse, plasma, po, 50 mg/kg, Group 1 (suspension, 0.5% methylcellulose in PBS), individual mouse, read-out: tmax): 1 h
AUC(0-inf) [2, 5]: 8200 ng·h/mL
AUC(0-t) [2, 5]: 1590 ng·h/mL
half-life [2, 5]: 28.3 h
Cmax ([2]; male, C57BL/6, mouse, plasma, po, 50 mg/kg, Group 1 (suspension, 0.5% methylcellulose in PBS), mean, read-out: Cmax): 235 ng/mL
Tmax ([2]; male, C57BL/6, mouse, plasma, po, 50 mg/kg, Group 1 (suspension, 0.5% methylcellulose in PBS), mean, read-out: tmax): 1.33 h
AUC(0-inf) [2, 6]: 3110 ng·h/mL
AUC(0-t) [2, 6]: 2880 ng·h/mL
half-life [2, 6]: 2.92 h
Cmax ([2]; male, C57BL/6, mouse, plasma, po, 50 mg/kg, Group 2 (solution, PEG400/Kleptose/water), individual mouse, read-out: Cmax): 487 ng/mL
Tmax ([2]; male, C57BL/6, mouse, plasma, po, 50 mg/kg, Group 2 (solution, PEG400/Kleptose/water), individual mouse, read-out: tmax): 2 h
AUC(0-inf) [2, 7]: 2960 ng·h/mL
AUC(0-t) [2, 7]: 2750 ng·h/mL
half-life [2, 7]: 2.9 h
Cmax ([2]; male, C57BL/6, mouse, plasma, po, 50 mg/kg, Group 2 (solution, PEG400/Kleptose/water), mean, read-out: Cmax): 449 ng/mL
Tmax ([2]; male, C57BL/6, mouse, plasma, po, 50 mg/kg, Group 2 (solution, PEG400/Kleptose/water), mean, read-out: tmax): 1.67 h
AUC(0-inf) [2, 8]: 612 ng·h/mL
AUC(0-t) [2, 8]: 564 ng·h/mL
Cmax ([2]; male, C57BL/6, mouse, plasma, po, 50 mg/kg, Group 3 (suspension, Labrafil/Masine/Miglyol/water), individual mouse, read-out: Cmax): 98.9 ng/mL
AUC(0-inf) [2, 9]: 584 ng·h/mL
AUC(0-t) [2, 9]: 533 ng·h/mL
half-life [2, 9]: 2.58 h
Cmax ([2]; male, C57BL/6, mouse, plasma, po, 50 mg/kg, Group 3 (suspension, Labrafil/Masine/Miglyol/water), mean, read-out: Cmax): 92 ng/mL
Tmax ([2]; male, C57BL/6, mouse, plasma, po, 50 mg/kg, Group 3 (suspension, Labrafil/Masine/Miglyol/water), mean, read-out: tmax): 3.33 h
Cmax [2, 10]: 309 ng/mL and 156 ng/mL
t1/2 [2, 10]: 1.88 h and 80.8 h and 2.08 h
AUCInf [2, 11]: 2962 ng·h/mL and 2817 ng·h/mL
AUClast [2, 11]: 2862 ng·h/mL and 2513 ng·h/mL
Cmax [2, 11]: 483 ng/mL and 378 ng/mL
t1/2 [2, 11]: 2.17 h and 3.61 h
AUClast Ratio (Metabolite/Parent) [2, 12]: 0.256
Cmax Ratio (Metabolite/Parent) [2, 12]: 0.211
AUCInf [2, 13]: 621 ng·h/mL and 519 ng·h/mL
AUClast [2, 13]: 532 ng·h/mL and 504 ng·h/mL
Cmax [2, 13]: 117 ng/mL and 58.7 ng/mL
Tmax [2, 13]: 8 h
t1/2 [2, 13]: 3.43 h and 2.93 h and 1.38 h
Structure (SMILES): CC(C)(C)c1ccc(-c2nc3cc(O)ccc3[nH]2)cc1 [TQS-621]
AUCInf [2, 10]: 1163 ng·h/mL and 22064 ng·h/mL and 1379 ng·h/mL
AUClast [2, 10]: 1148 ng·h/mL and 2355 ng·h/mL and 1267 ng·h/mL
inhibition of LPS-stimulated TNFα secretion (TNFα): potently inhibits; also recorded: potent inhibitor
